Measured values reported in ChEMBL document CHEMBL5465560, “Selectivity Literature for EUbOPEN Chemogenomic Library” (2024).

Assays:
[1] = target: ALK tyrosine kinase receptor (Homo sapiens, UniProt Q9UM73); conditions: at 10 µM
[2] = target: T1, Eukaryotic translation initiation factor 2-alpha kinase 3 (Homo sapiens) (UniProt Q9NZJ5); test: Selectivity interaction (ActivX KiNativ screen (kinase selectivity in THP-1 cell lysates)) EUB0000639a EIF2AK3; format: subcellular; conditions: lysate
T1 sequence (whole entry): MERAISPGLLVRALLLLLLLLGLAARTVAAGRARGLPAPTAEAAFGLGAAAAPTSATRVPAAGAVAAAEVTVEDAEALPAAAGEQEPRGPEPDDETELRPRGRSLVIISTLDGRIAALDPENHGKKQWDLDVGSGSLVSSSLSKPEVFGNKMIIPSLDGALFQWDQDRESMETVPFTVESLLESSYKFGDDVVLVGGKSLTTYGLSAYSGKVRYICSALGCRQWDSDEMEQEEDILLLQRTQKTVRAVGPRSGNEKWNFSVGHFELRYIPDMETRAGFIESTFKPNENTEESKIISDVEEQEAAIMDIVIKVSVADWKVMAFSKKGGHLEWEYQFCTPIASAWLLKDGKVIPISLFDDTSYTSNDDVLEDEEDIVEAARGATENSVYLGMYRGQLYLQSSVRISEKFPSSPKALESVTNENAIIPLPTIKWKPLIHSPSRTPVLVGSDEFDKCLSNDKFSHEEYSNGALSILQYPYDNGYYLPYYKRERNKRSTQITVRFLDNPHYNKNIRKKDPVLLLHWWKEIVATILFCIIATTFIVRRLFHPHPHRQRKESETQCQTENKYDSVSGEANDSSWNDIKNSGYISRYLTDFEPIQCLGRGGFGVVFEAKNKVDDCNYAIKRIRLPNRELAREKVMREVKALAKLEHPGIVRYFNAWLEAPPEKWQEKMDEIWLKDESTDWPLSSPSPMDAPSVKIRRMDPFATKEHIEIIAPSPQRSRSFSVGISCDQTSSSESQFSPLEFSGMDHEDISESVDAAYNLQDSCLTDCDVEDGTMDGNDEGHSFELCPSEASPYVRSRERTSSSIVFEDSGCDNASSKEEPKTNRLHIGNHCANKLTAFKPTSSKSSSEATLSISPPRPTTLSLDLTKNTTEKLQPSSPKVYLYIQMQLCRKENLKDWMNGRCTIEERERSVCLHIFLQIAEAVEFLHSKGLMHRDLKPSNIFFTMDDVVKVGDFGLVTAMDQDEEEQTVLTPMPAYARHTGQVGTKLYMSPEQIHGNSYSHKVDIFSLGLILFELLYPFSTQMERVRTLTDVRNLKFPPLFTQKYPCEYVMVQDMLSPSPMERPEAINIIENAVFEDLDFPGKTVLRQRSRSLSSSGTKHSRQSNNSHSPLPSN

[3] = target: T2, cGMP-dependent protein kinase 2 (Homo sapiens) (UniProt Q13237); test: Selectivity interaction (Kinase panel (Invitrogen)) EUB0000639a PRKG2; conditions: at 200 nM
T2 sequence (whole entry): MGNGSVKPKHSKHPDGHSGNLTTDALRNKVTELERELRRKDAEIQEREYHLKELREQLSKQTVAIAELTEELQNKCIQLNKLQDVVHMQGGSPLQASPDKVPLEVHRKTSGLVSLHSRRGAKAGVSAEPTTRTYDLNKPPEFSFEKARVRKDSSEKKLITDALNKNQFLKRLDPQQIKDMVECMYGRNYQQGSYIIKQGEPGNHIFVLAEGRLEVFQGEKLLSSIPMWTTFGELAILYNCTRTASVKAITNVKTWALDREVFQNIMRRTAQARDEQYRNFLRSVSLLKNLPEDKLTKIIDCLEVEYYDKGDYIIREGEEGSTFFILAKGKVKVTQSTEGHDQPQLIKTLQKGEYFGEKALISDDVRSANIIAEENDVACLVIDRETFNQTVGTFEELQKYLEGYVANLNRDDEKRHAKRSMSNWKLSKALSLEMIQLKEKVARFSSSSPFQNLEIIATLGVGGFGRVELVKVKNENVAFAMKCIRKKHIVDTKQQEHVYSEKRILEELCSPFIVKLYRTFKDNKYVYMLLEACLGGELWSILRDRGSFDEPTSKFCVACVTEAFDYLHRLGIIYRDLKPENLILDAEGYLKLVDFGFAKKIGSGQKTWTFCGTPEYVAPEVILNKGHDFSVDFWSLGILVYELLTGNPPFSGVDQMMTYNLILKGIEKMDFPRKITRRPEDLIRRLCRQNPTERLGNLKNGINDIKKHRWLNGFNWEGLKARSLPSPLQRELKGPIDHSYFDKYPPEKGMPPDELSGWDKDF

[4] = Selectivity interaction (KinomeScan (DiscoverX)) EUB0000695a CDPK1; conditions: at 100 nM
[5] = target: T3, Ephrin type-B receptor 1 (Homo sapiens) (UniProt P54762); test: Selectivity interaction (KinomeScan (DiscoverX)) EUB0001079a EPHB1; conditions: at 1 µM
T3 sequence (whole entry): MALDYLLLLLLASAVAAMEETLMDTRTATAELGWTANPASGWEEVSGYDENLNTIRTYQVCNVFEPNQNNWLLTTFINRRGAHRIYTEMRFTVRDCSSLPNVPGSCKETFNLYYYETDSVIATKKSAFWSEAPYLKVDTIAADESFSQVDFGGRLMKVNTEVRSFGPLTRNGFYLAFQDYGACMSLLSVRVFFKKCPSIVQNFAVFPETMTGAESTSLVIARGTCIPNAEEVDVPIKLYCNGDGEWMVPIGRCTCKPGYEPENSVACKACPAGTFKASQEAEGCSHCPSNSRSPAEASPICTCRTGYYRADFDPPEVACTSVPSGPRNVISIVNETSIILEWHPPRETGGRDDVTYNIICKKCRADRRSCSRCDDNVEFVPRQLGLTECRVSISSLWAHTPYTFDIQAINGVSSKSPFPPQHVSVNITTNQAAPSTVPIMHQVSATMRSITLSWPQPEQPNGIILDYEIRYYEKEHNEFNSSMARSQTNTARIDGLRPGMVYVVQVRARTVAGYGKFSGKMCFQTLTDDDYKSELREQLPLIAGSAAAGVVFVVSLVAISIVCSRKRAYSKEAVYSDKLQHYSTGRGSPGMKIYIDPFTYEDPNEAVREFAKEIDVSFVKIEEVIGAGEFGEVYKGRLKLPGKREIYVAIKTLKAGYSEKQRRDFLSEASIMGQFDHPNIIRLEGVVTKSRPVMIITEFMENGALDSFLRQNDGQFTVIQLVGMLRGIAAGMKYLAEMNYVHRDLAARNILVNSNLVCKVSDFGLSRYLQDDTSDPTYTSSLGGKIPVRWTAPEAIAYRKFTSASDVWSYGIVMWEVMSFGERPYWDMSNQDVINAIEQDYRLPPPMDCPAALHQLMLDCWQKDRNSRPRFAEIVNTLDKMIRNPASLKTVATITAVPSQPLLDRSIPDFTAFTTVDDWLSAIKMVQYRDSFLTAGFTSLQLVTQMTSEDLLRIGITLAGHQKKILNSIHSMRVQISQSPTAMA

ALK tyrosine kinase receptor, sequence (Q9UM73 19-1620 limits assumed): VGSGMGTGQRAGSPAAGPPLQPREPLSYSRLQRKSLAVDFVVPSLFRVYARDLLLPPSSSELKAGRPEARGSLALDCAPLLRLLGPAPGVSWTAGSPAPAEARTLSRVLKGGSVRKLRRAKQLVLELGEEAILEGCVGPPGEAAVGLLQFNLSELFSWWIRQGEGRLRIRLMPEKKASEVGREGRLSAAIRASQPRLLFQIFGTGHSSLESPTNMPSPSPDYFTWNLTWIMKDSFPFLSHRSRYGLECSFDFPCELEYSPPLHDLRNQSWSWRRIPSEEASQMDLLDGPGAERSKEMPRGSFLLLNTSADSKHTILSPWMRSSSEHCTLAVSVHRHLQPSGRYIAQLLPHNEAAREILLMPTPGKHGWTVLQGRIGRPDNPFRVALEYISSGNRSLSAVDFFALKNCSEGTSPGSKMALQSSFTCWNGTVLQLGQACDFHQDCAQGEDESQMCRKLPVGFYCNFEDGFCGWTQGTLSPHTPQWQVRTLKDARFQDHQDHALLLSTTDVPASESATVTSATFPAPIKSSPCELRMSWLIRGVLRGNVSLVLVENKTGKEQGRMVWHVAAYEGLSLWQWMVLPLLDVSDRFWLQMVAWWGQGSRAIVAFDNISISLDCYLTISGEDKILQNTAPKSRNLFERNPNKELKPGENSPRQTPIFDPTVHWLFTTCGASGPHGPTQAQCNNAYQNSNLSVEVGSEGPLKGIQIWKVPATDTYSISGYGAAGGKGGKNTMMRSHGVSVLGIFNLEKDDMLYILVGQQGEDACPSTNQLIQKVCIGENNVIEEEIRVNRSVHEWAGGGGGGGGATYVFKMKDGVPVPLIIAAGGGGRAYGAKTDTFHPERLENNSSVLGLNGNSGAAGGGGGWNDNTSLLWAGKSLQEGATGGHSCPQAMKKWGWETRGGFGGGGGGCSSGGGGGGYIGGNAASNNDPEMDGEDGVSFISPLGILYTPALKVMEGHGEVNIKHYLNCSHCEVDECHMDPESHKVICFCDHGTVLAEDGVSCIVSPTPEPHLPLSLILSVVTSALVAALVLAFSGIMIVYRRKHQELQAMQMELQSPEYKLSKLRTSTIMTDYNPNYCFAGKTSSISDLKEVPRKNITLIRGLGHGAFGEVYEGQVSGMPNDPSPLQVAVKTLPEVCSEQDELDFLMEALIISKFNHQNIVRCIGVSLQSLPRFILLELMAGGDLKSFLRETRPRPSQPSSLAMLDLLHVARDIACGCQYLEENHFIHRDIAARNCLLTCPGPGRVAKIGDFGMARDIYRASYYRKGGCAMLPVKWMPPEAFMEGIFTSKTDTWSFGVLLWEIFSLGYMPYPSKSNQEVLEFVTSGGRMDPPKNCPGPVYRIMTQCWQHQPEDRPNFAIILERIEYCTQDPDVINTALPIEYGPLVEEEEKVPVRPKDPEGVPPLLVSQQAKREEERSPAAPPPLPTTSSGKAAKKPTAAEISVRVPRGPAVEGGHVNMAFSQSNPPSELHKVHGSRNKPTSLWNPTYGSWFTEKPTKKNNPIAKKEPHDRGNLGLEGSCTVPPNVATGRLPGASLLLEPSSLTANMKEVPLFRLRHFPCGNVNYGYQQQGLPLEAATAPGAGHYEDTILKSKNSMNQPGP

Work on `Cc1cc([C@@H](C)Nc2ccccc2C(=O)O)c2nc(N3CCOCC3)cc(=O)n2c1` [AZD-6482] yielded a % of control [1] of 100%.
For `CC[C@@H]1[C@H](F)C(=O)N[C@@H]1COc1nccc2cc(C(N)=O)c(OC)cc12` [ZIMLOVISERTIB], the % of inhibition ([2]; at 0.01 µM) was 5.1%, the % of inhibition ([2]; at 0.04 µM) was -15.8% and the % of inhibition ([2]; at 0.2 µM) was -12.3%. It also gave a % of inhibition ([2]; at 1 µM) of -2.3%, a % of inhibition ([2]; at 5 µM) of -20.8% and a % of inhibition [3] of 10.5%.
For `Cc1cc(F)c(C(=O)Nc2cccc(-c3nncn3C(C)C)n2)cc1-n1cnc(C2CC2)c1`, the % of control [4] was 100%.
In the case of `Nc1cnc(N2CCc3cc(S(=O)(=O)Nc4c(F)cc(Cl)cc4F)cc(N4CCCC4=O)c32)nc1` [TP-020n], the % of control [5] is reported as 92%.
